Assays:
bluegrass = assay: Test D preemergence; format: in vivo, Poa annua; settings: Poa annua, pre-emergence
In short: (§1)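 Values are 0–100 visual control ratings (0 none, 100 complete) given 7–21 days after application. Soil for preemergence was silt loam; postemergence plants stood 2–18 cm tall.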

lambsquarters = assay: Test D preemergence; format: in vivo, Chenopodium album; settings: Chenopodium album, pre-emergence
In short: as §1

oilseed rape [1] = assay: Test D preemergence; format: in vivo, Brassica napus; settings: Brassica napus, pre-emergence
In short: as §1

speedwell [2] = assay: Test D preemergence; format: in vivo, Veronica persica; settings: Veronica persica, pre-emergence
In short: as §1

spring wheat = assay: Test D preemergence; format: in vivo, Triticum aestivum; settings: Triticum aestivum, pre-emergence
In short: as §1

winter wheat = assay: Test D preemergence; format: in vivo, Triticum aestivum; settings: Triticum aestivum, pre-emergence
In short: as §1

Italian ryegrass = assay: Test D postemergence; format: in vivo, Lolium multiflorum; settings: Lolium multiflorum, post-emergence
In short: as §1

oilseed rape [3] = assay: Test D postemergence; format: in vivo, Brassica napus; settings: Brassica napus, post-emergence
In short: as §1

speedwell [4] = assay: Test D postemergence; format: in vivo, Veronica persica; settings: Veronica persica, post-emergence
In short: as §1

wild oat = assay: Test D postemergence; format: in vivo, Avena fatua; settings: Avena fatua, post-emergence
In short: as §1

fall panicum = assay: Test E postemergence; format: in vivo, Panicum dichotomiflorum; settings: Panicum dichotomiflorum, post-emergence, read-out: Plant response rating, Panicum, Fall
In short: (§2)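 Compound in a non-phytotoxic solvent mixture with surfactant was applied preemergence to seeds in silt loam soil, or postemergence to plants 2 to 18 cm tall grown in peat-based potting medium. Plants were kept in a greenhouse for 14 to 21 days, then rated visually against untreated controls on a 0 (no effect) to 100 (complete control) scale.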

arrowleaf sida = assay: Test E postemergence; format: in vivo, Sida rhombifolia; settings: Sida rhombifolia, post-emergence, read-out: Plant response rating, Arrowleaf Sida
Text: Seeds of plant species selected from corn (Zea mays), soybean (Glycine max), velvetleaf (Abutilon theophrasti), lambsquarters (Chenopodium album), wild poinsettia (Euphorbia heterophylla), palmer pigweed (Amaranthus palmeri), waterhemp (common waterhemp, Amaranthus rudis), surinam grass (Brachiaria decumbens), large (Lg) crabgrass (Digitaria sanguinalis), Brazilian crabgrass (Digitaria horizontalis), fall panicum (Panicum dichotomiflorum), giant foxtail (Setaria faberii), green foxtail (Setaria viridis), goosegrass (Eleusine indica), johnsongrass (Sorghum halepense), ragweed (common ragweed, Ambrosia elatior), barnyardgrass (Echinochloa crus-galli), sandbur (southern sandbur, Cenchrus echinatus), arrowleaf sida (Sida rhombifolia), Italian ryegrass (Lolium multiflorum), dayflower (Virginia (VA) dayflower, Commelina virginica), field bindweed (Convolvulus arvensis), morningglory (Ipomoea coccinea), nightshade (eastern black nightshade, Solanum ptycanthum), kochia (Kochia scoparia), yellow nutsedge (Cyperus esculentus), cocklebur (common cocklebur, Xanthium strumarium), smartweed (ladysthumb smartweed, and hairy beggarticks (Bidens pilosa), were planted into a silt loam soil and treated preemergence with test chemicals formulated in a non-phytotoxic solvent mixture which included a surfactant.
At the same time, plants from these crop and weed species and also horseweed (Canada horseweed, Conyza canadensis), waterhemp_RES1, (ALS & Triazine resistant common waterhemp, Amaranthus rudis), and waterhemp_RES2, (ALS & HPPD resistant common waterhemp, Amaranthus rudis) were planted in pots containing Redi-Earth® planting medium (Scotts Company, 14111 Scottslawn Road, Marysville, Ohio 43041) comprising spaghnum peat moss, vermiculite, wetting agent and starter nutrients were treated with postemergence applications of test chemicals formulated in the same manner. Plants ranged in height from 2 to 18 cm for postemergence treatments (1- to 4-leaf stage). Treated plants and controls were maintained in a greenhouse for 14 to 21 days, after which time all species were compared to controls and visually evaluated. Plant response ratings, summarized in Table E, are based on a scale of 0 to 100 where 0 is no effect and 100 is complete control. A dash (-) response means no test result.

dayflower = assay: Test E postemergence; format: in vivo, Commelina virginica; settings: Commelina virginica, post-emergence, read-out: Plant response rating, Dayflower, VA
In short: as §2

[5] = Postemergence, 31 g ai/ha, scale 0 to 100
[6] = Postemergence, 62 g ai/ha, scale 0 to 100
[7] = Postemergence, 125 g ai/ha, scale 0 to 100
[8] = postemergence, 8 g ai/ha, scale 0 to 100, 0 no effect, 100 complete control
[9] = postemergence, 16 g ai/ha, scale 0 to 100, 0 no effect, 100 complete control

Clc1cnc(Oc2ccccc2-n2cc(Br)cn2)nc1 [Compound 7, 2-[2-(4-bromo-1H-pyrazol-1-yl)phenoxy]-5-chloropyrimidine]
pest or weed control at 16 g/ha (bluegrass; 16 g ai/ha, scale 0 (no effect) to 100 (complete control), read-out: Plant response rating, Bluegrass): 0% | pest or weed control at 31 g/ha (bluegrass; 31 g ai/ha, scale 0-100, read-out: Plant response rating, Bluegrass): 0% | pest or weed control at 62 g/ha (bluegrass; 62 g ai/ha, scale 0-100, read-out: Plant response rating, Bluegrass): 0% | pest or weed control at 125 g/ha (bluegrass; 125 g ai/ha, scale 0-100, read-out: Plant response rating, Bluegrass): 30% | pest or weed control at 250 g/ha (bluegrass; 250 g ai/ha, scale 0-100, read-out: Plant response rating, Bluegrass): 40% | pest or weed control at 16 g/ha (lambsquarters; 16 g ai/ha, scale 0 (no effect) to 100 (complete control), read-out: Plant response rating, Lambsquarters): 0% | pest or weed control at 31 g/ha (lambsquarters; 31 g ai/ha, scale 0-100, read-out: Plant response rating, Lambsquarters): 0% | pest or weed control at 62 g/ha (lambsquarters; 62 g ai/ha, scale 0-100, read-out: Plant response rating, Lambsquarters): 30% | pest or weed control at 125 g/ha (lambsquarters; 125 g ai/ha, scale 0-100, read-out: Plant response rating, Lambsquarters): 40% | pest or weed control at 250 g/ha (lambsquarters; 250 g ai/ha, scale 0-100, read-out: Plant response rating, Lambsquarters): 60% | plant injury at 16 g/ha (oilseed rape [1]; 16 g ai/ha, scale 0 (no effect) to 100 (complete control), read-out: Plant response rating, Oilseed Rape): 0% | plant injury at 31 g/ha (oilseed rape [1]; 31 g ai/ha, scale 0-100, read-out: Plant response rating, Oilseed Rape): 10% | plant injury at 62 g/ha (oilseed rape [1]; 62 g ai/ha, scale 0-100, read-out: Plant response rating, Oilseed Rape): 25% | plant injury at 125 g/ha (oilseed rape [1]; 125 g ai/ha, scale 0-100, read-out: Plant response rating, Oilseed Rape): 100% | plant injury at 250 g/ha (oilseed rape [1]; 250 g ai/ha, scale 0-100, read-out: Plant response rating, Oilseed Rape): 100% | pest or weed control at 16 g/ha (speedwell [2]; 16 g ai/ha, scale 0 (no effect) to 100 (complete control), read-out: Plant response rating, Speedwell): 20% | pest or weed control at 31 g/ha (speedwell [2]; 31 g ai/ha, scale 0 (no effect) to 100 (complete control), read-out: Plant response rating, Speedwell): 50% | pest or weed control at 62 g/ha (speedwell [2]; 62 g ai/ha, scale 0-100, read-out: Plant response rating, Speedwell): 100% | pest or weed control at 125 g/ha (speedwell [2]; 125 g ai/ha, scale 0-100, read-out: Plant response rating, Speedwell): 100% | pest or weed control at 250 g/ha (speedwell [2]; 250 g ai/ha, scale 0-100, read-out: Plant response rating, Speedwell): 100% | plant injury at 16 g/ha (spring wheat; 16 g ai/ha, scale 0 (no effect) to 100 (complete control), read-out: Plant response rating, Wheat, Spring): 0% | plant injury at 31 g/ha (spring wheat; 31 g ai/ha, scale 0 (no effect) to 100 (complete control), read-out: Plant response rating, Wheat, Spring): 0% | plant injury at 62 g/ha (spring wheat; 62 g ai/ha, scale 0-100, read-out: Plant response rating, Wheat, Spring): 0% | plant injury at 125 g/ha (spring wheat; 125 g ai/ha, scale 0-100, read-out: Plant response rating, Wheat, Spring): 0% | plant injury at 250 g/ha (spring wheat; 250 g ai/ha, scale 0-100, read-out: Plant response rating, Wheat, Spring): 0% | plant injury at 16 g/ha (winter wheat; 16 g ai/ha, scale 0 (no effect) to 100 (complete control), read-out: Plant response rating, Wheat, Winter): 0% | plant injury at 31 g/ha (winter wheat; 31 g ai/ha, scale 0 (no effect) to 100 (complete control), read-out: Plant response rating, Wheat, Winter): 0% | plant injury at 62 g/ha (winter wheat; 62 g ai/ha, scale 0-100, read-out: Plant response rating, Wheat, Winter): 0% | plant injury at 125 g/ha (winter wheat; 125 g ai/ha, scale 0-100, read-out: Plant response rating, Wheat, Winter): 5% | plant injury at 250 g/ha (winter wheat; 250 g ai/ha, scale 0-100, read-out: Plant response rating, Wheat, Winter): 10% | pest or weed control at 16 g/ha (Italian ryegrass; 16 g ai/ha, scale 0-100, read-out: Plant response rating, Ryegrass, Italian): 0% | pest or weed control at 31 g/ha (Italian ryegrass; 31 g ai/ha, scale 0 to 100 (0 no effect, 100 complete control), read-out: Plant response rating, Ryegrass, Italian): 0% | pest or weed control at 62 g/ha (Italian ryegrass; 62 g ai/ha, scale 0 to 100 (0 no effect, 100 complete control), read-out: Plant response rating, Ryegrass, Italian): 0% | pest or weed control at 125 g/ha (Italian ryegrass; 125 g ai/ha, scale 0 to 100 (0 no effect, 100 complete control), read-out: Plant response rating, Ryegrass, Italian): 0% | pest or weed control at 250 g/ha (Italian ryegrass; 250 g ai/ha, scale 0 to 100 (0 no effect, 100 complete control), read-out: Plant response rating, Ryegrass, Italian): 0% | plant injury at 16 g/ha (oilseed rape [3]; 16 g ai/ha, scale 0-100, read-out: Plant response rating, Oilseed Rape): 75% | plant injury at 31 g/ha (oilseed rape [3]; 31 g ai/ha, scale 0 to 100 (0 no effect, 100 complete control), read-out: Plant response rating, Oilseed Rape): 80% | plant injury at 62 g/ha (oilseed rape [3]; 62 g ai/ha, scale 0 to 100 (0 no effect, 100 complete control), read-out: Plant response rating, Oilseed Rape): 95% | plant injury at 125 g/ha (oilseed rape [3]; 125 g ai/ha, scale 0 to 100 (0 no effect, 100 complete control), read-out: Plant response rating, Oilseed Rape): 100% | plant injury at 250 g/ha (oilseed rape [3]; 250 g ai/ha, scale 0 to 100 (0 no effect, 100 complete control), read-out: Plant response rating, Oilseed Rape): 100% | pest or weed control at 16 g/ha (speedwell [4]; 16 g ai/ha, scale 0-100, read-out: Plant response rating, Speedwell): 30% | pest or weed control at 31 g/ha (speedwell [4]; 31 g ai/ha, scale 0 to 100 (0 no effect, 100 complete control), read-out: Plant response rating, Speedwell): 70% | pest or weed control at 62 g/ha (speedwell [4]; 62 g ai/ha, scale 0 to 100 (0 no effect, 100 complete control), read-out: Plant response rating, Speedwell): 100% | pest or weed control at 125 g/ha (speedwell [4]; 125 g ai/ha, scale 0 to 100 (0 no effect, 100 complete control), read-out: Plant response rating, Speedwell): 100% | pest or weed control at 250 g/ha (speedwell [4]; 250 g ai/ha, scale 0 to 100 (0 no effect, 100 complete control), read-out: Plant response rating, Speedwell): 100% | pest or weed control at 16 g/ha (wild oat; 16 g ai/ha, scale 0-100, read-out: Plant response rating, Oat, Wild): 0% | pest or weed control at 31 g/ha (wild oat; 31 g ai/ha, scale 0 to 100 (0 no effect, 100 complete control), read-out: Plant response rating, Oat, Wild): 0% | pest or weed control at 62 g/ha (wild oat; 62 g ai/ha, scale 0 to 100 (0 no effect, 100 complete control), read-out: Plant response rating, Oat, Wild): 0% | pest or weed control at 125 g/ha (wild oat; 125 g ai/ha, scale 0 to 100 (0 no effect, 100 complete control), read-out: Plant response rating, Oat, Wild): 10% | pest or weed control at 250 g/ha (wild oat; 250 g ai/ha, scale 0 to 100 (0 no effect, 100 complete control), read-out: Plant response rating, Oat, Wild): 25% | pest or weed control at 31 g/ha (fall panicum; [5]): 15% | pest or weed control at 62 g/ha (fall panicum; [6]): 50% | pest or weed control at 125 g/ha (fall panicum; [7]): 0% | pest or weed control at 8 g/ha (fall panicum; [8]): 0% | pest or weed control at 16 g/ha (fall panicum; [9]): 0% | pest or weed control at 31 g/ha (arrowleaf sida; [5]): 80% | pest or weed control at 62 g/ha (arrowleaf sida; [6]): 90% | pest or weed control at 125 g/ha (arrowleaf sida; [7]): 95% | pest or weed control at 8 g/ha (arrowleaf sida; [8]): 65% | pest or weed control at 16 g/ha (arrowleaf sida; [9]): 75% | pest or weed control at 31 g/ha (dayflower; [5]): 50% | pest or weed control at 62 g/ha (dayflower; [6]): 70% | pest or weed control at 125 g/ha (dayflower; [7]): 90% | pest or weed control at 8 g/ha (dayflower; [8]): 10% | pest or weed control at 16 g/ha (dayflower; [9]): 40%

— patent US9695155B2, “Herbicidal substituted pyrimidinyloxy benzene compounds” (E. I. DU PONT DE NEMOURS AND COMPANY, priority 2013, dated 2017)
